Experimental data as given in US20140113904A1, “TREATMENT OF CANCER WITH TOR KINASE INHIBITORS” (SIGNAL PHARMACEUTICALS, LLC, priority 2012, published 2014).
Where two headings read alike, the source gives them in different places.

Legend:
Akt(T308) = experiment: Phospho-Akt(T308) in PC3 cell lysates, MSD; type: cell-based, human; details: PC3, 1 hour exposure; read-out: p-Akt(T308) IC50
Text: The direct substrate for TORC1 was 4E-BP 1(T46) and indirect downstream substrate was S6RP(S235/S236). The direct substrate for TORC2 was Akt(S473) and indirect downstream substrates measured were GSK3β(S9) and PRAS40(T246). Additionally, the phosphorylation status of Akt(T308), a phosphorylation site for PDK1 was monitored.
MSD® biomarker detection assays provide a rapid and convenient method for measuring the total and phosphorylated levels of protein targets within a single small volume sample. These assays are available in both single-plex and multiplex formats. In a single-plex assay, an antibody for a specific protein target is coated on one electrode (or spot) per well. […] MSD Read Buffer that provides the appropriate chemical environment for ECL is added and the plate is read using an MSD SECTOR™ Imager. […] The instrument measures intensity of the emitted light to afford a quantitative measure of the amount of phosphorylated Akt or S6RP present in the sample. […]
The assay plate was incubated with 150 μL of MSD Blocker A Solution for 1 hour with shaking at room temperature. […] Then 150 μL of 1×MSD Read Buffer T was added to each well. The plate was read on the SECTOR Imager plate reader. The Excel data was transferred to Activity Base and IC50 values were calculated.
All data was analyzed using XLfit from IDBS. […]

[1] = Body weight in Compound 1 PC3 xenograft efficacy studies; type: in vivo, SCID mice
Description: The BID dose groups were dosed with a 10-hour separation between the morning and evening doses. […] At the end of each study, plasma and/or tumor samples were collected.
Initial body weights were recorded prior to the initiation of treatment using a digital scale. The percent body weight change during the course of the study was calculated using initial body weight measurements. Body weights of each animal were measured twice a week at the same time that tumor measurements were taken. Body weights were measured more frequently if significant decreases were noted during the course of the study.

S6RP (S235/236) = experiment: Phospho-S6RP (S235/S236) in PC-3 cell lysates, MSD (Compound 2); type: cell-based; details: Homo sapiens; PC-3, 1 hour; read-out: mTORC1 S6RP (S235/236) IC50
[2] = Compound 2 concentrations in plasma by LC-MS/MS; type: in vivo, SCID mice; details: for concentration at 0.5 h / concentration at 1 h / concentration at 3 h / concentration at 6 h / concentration at 10 h / concentration at 24 h / AUC(0-t): female, SCID, mouse, plasma; for concentration at 0.5 h / concentration at 1 h / concentration at 3 h / concentration at 6 h / concentration at 10 h / concentration at 24 h: oral; for AUC(0-t): po
Ki67 = Ki67 immunohistochemistry in PC3 tumors (Compound 2); type: in vivo, SCID mice; details: 5 mg/kg oral QD for 6 days, 2 hours after last dose
CD31 = CD31 immunohistochemistry in PC3 tumors (Compound 2); type: in vivo, SCID mice; details: 5 mg/kg oral QD for 6 days, 2 hours after last dose

For CO[C@H]1CC[C@H](N2C(=O)CNc3ncc(-c4ccc(C(C)(C)O)nc4)nc32)CC1 [Compound 1, 7-(6-(2-hydroxypropan-2-yl)pyridin-3-yl)-1-((1r,4r)-4-methoxycyclohexyl)-3,4-dihydropyrazino-[2,3-b]pyrazin-2(1H)-one], the IC50 (Akt(T308)) was 0.13 µM, the “change in body weight” value ([1]; 10 mg/kg QD, 3 weeks, data not shown) was “No significant change” and the “loss of initial body mass” value ([1]; 25 mg/kg QD, end of the first cycle) was “approximately 10%”. The body weight loss ([1]; 25 mg/kg QD, intermittent dosing study period) was “about 10%”, the body weight change ([1]; 25 mg/kg QD, second dosing cycle) was “about 5%” and the “loss of initial body weight” value ([1]; regression study, 25 mg/kg QD, by Day 26, euthanized) was “over 19%”.
With CCN1C(=O)CNc2ncc(-c3ccc(-c4nc[nH]n4)nc3C)nc21 [Compound 2, 1-ethyl-7-(2-methyl-6-(1H-1,2,4-triazol-3-yl)pyridin-3-yl)-3,4-dihydropyrazino[2,3-b]pyrazin-2(1H)-one] the IC50 (S6RP (S235/236)) was 0.023 ± 0.007 µM, the “Plasma Compound 2 Concentration (μM) Mean ± SEM” value ([2]; 0.1 mg/kg single oral dose, 24 h) was “BLQ” and the “Plasma Concentration (μM) Mean ± SEM” value ([2]; 2 mg/kg QD, 10 h after last dose) was 0.21 ± 0.05 µM. For the same molecule, the concentration at 0.5 h ([2]; 0.1 mg/kg, Plasma Compound 2 Concentration (μM) Mean ± SEM, 0.1 mg/kg single oral dose) was 0.05 µM, the concentration at 1 h ([2]; 0.1 mg/kg, Plasma Compound 2 Concentration (μM) Mean ± SEM, 0.1 mg/kg single oral dose, 1 h) was 0.04 µM and the concentration at 3 h ([2]; 0.1 mg/kg, Plasma Compound 2 Concentration (μM) Mean ± SEM, 0.1 mg/kg single oral dose, 3 h) was 0.02 µM. It also gave a concentration at 6 h ([2]; 0.1 mg/kg, Plasma Compound 2 Concentration (μM) Mean ± SEM, 0.1 mg/kg single oral dose, 6 h) of 0.02 µM, a concentration at 10 h ([2]; 0.1 mg/kg, Plasma Compound 2 Concentration (μM) Mean ± SEM, 0.1 mg/kg single oral dose, 10 h) of 0.01 µM and a concentration at 0.5 h ([2]; 0.3 mg/kg, Plasma Compound 2 Concentration (μM) Mean ± SEM, 0.3 mg/kg single oral dose) of 0.16 ± 0.03 µM. For the same molecule, the concentration at 1 h ([2]; 0.3 mg/kg, Plasma Compound 2 Concentration (μM) Mean ± SEM, 0.3 mg/kg single oral dose, 1 h) was 0.16 ± 0.01 µM, the concentration at 3 h ([2]; 0.3 mg/kg, Plasma Compound 2 Concentration (μM) Mean ± SEM, 0.3 mg/kg single oral dose, 3 h) was 0.07 ± 0.01 µM and the concentration at 6 h ([2]; 0.3 mg/kg, Plasma Compound 2 Concentration (μM) Mean ± SEM, 0.3 mg/kg single oral dose, 6 h) was 0.07 ± 0.01 µM. It also gave a concentration at 10 h ([2]; 0.3 mg/kg, Plasma Compound 2 Concentration (μM) Mean ± SEM, 0.3 mg/kg single oral dose, 10 h) of 0.04 ± 0.01 µM, a concentration at 24 h ([2]; 0.3 mg/kg, Plasma Compound 2 Concentration (μM) Mean ± SEM, 0.3 mg/kg single oral dose, 24 h) of 0 µM and a concentration at 1 h ([2]; 1 mg/kg, 1 mg/kg BID, 1 h after last dose, read-out: Plasma Concentration (μM) Mean ± SEM) of 0.73 ± 0.14 µM. It also gave a concentration at 3 h ([2]; 1 mg/kg, 1 mg/kg BID, 3 h after last dose, read-out: Plasma Concentration (μM) Mean ± SEM) of 0.48 ± 0.04 µM, a concentration at 6 h ([2]; 1 mg/kg, 1 mg/kg BID, 6 h after last dose, read-out: Plasma Concentration (μM) Mean ± SEM) of 0.22 ± 0.04 µM and a concentration at 10 h ([2]; 1 mg/kg, 1 mg/kg BID, 10 h after last dose, read-out: Plasma Concentration (μM) Mean ± SEM) of 0.11 ± 0.01 µM. The concentration at 24 h ([2]; 1 mg/kg, 1 mg/kg BID, 24 h after last dose, read-out: Plasma Concentration (μM) Mean ± SEM) was 0.02 µM, the concentration at 10 h ([2]; 1 mg/kg, 1 mg/kg single dose, read-out: plasma concentration at which pS6RP and pAKT (S473) were inhibited through 10 hours) was 0.12 ± 0.003 µM and the concentration at 1 h ([2]; 1 mg/kg, Plasma Compound 2 Concentration (μM) Mean ± SEM, 1 mg/kg single oral dose, 1 h) was 0.53 ± 0.02 µM. For the same molecule, the concentration at 3 h ([2]; 1 mg/kg, Plasma Compound 2 Concentration (μM) Mean ± SEM, 1 mg/kg single oral dose, 3 h) was 0.34 ± 0.01 µM, the concentration at 6 h ([2]; 1 mg/kg, Plasma Compound 2 Concentration (μM) Mean ± SEM, 1 mg/kg single oral dose, 6 h) was 0.13 ± 0.01 µM and the concentration at 10 h ([2]; 1 mg/kg, Plasma Compound 2 Concentration (μM) Mean ± SEM, 1 mg/kg single oral dose, 10 h) was 0.12 µM. The concentration at 24 h ([2]; 1 mg/kg, Plasma Compound 2 Concentration (μM) Mean ± SEM, 1 mg/kg single oral dose, 24 h) was 0.005 µM, the concentration at 1 h ([2]; 2 mg/kg, 2 mg/kg QD, 1 h after last dose, read-out: Plasma Concentration (μM) Mean ± SEM) was 1.02 ± 0.2 µM and the concentration at 3 h ([2]; 2 mg/kg, 2 mg/kg QD, 3 h after last dose, read-out: Plasma Concentration (μM) Mean ± SEM) was 0.59 ± 0.08 µM. It also gave a concentration at 6 h ([2]; 2 mg/kg, 2 mg/kg QD, 6 h after last dose, read-out: Plasma Concentration (μM) Mean ± SEM) of 0.27 ± 0.08 µM, a concentration at 10 h ([2]; 2 mg/kg, 2 mg/kg QD, 10 h after last dose, read-out: Plasma Concentration (μM) Mean ± SEM) of 0.21 µM and a concentration at 24 h ([2]; 2 mg/kg, 2 mg/kg QD, 24 h after last dose, read-out: Plasma Concentration (μM) Mean ± SEM) of 0.02 ± 0.01 µM. It also gave a concentration at 24 h ([2]; 5 mg/kg, Compound 2 in the plasma, efficacy study, 5 mg/kg QD, 24 hours after the last dose) of 0.13 µM, a concentration at 1 h ([2]; 10 mg/kg, Plasma Compound 2 Concentration (μM) Mean ± SEM, 10 mg/kg single oral dose, 1 h) of 6.78 ± 1.16 µM and a concentration at 3 h ([2]; 10 mg/kg, Plasma Compound 2 Concentration (μM) Mean ± SEM, 10 mg/kg single oral dose, 3 h) of 5.69 ± 0.96 µM. The concentration at 6 h ([2]; 10 mg/kg, Plasma Compound 2 Concentration (μM) Mean ± SEM, 10 mg/kg single oral dose, 6 h) was 2.1 ± 0.22 µM, the concentration at 10 h ([2]; 10 mg/kg, Plasma Compound 2 Concentration (μM) Mean ± SEM, 10 mg/kg single oral dose, 10 h) was 1.18 ± 0.2 µM and the concentration at 24 h ([2]; 10 mg/kg, Plasma Compound 2 Concentration (μM) Mean ± SEM, 10 mg/kg single oral dose, 24 h) was 0.8 ± 0.09 µM. It also gave an AUC(0-t) ([2]; 0.5 mg/kg, 0.5 mg/kg BID, after last dose, read-out: total plasma AUC0-10 h) of 1.42 µM·h, an AUC(0-t) ([2]; 1 mg/kg, 1 mg/kg BID, after last dose, read-out: total plasma AUC0-10 h) of 3.27 µM·h and an AUC(0-t) ([2]; 1 mg/kg, 1 mg/kg QD (BID/QD study), read-out: total plasma AUC0-24 h) of 2.95 µM·h. It also gave an AUC(0-t) ([2]; 1 mg/kg, 1 mg/kg QD, last day, read-out: total plasma AUC0-24 h) of 2.33 µM·h, an AUC(0-t) ([2]; 2 mg/kg, 2 mg/kg QD, last day, read-out: total plasma AUC0-24 h) of 5.93 µM·h and an AUC(0-t) ([2]; 5 mg/kg, 5 mg/kg QD, last day, read-out: total plasma AUC0-24 h) of 17 µM·h. For the same molecule, the “reduction in the number of proliferating cells (Ki67) vs vehicle” value (Ki67) was 93% and the “reduction of CD31 positive blood vessels vs vehicle” value (CD31) was 50%.
